Reference: ChEMBL document CHEMBL3046287, “Azoxystrobin resistance of French Mycosphaerella graminicola strains assessed by four in vitro bioassays and by screening of G143A substitution” (Crop Prot, 2010)
In brackets after ≈: the same amount, converted by molar mass.

Key:
Type in all cases: functional, organism-based
Zymoseptoria tritici [1] = assay: Antifungal activity against azoxystrobin-sensitive Zymoseptoria tritici T0209 carrying cytochrome-b G143 allele assessed as fungal growth inhibition after 6 days at 20 degC by microplate without alamar blue assay; details: T0209, 144 h
Zymoseptoria tritici [2] = assay: Antifungal activity against azoxystrobin-resistant Zymoseptoria tritici T0451 carrying cytochrome-b A143 allele assessed as inhibition of spore germination after 2 days at 18 degC by spotting on PDA medium assay; details: T0451, 48 h
Zymoseptoria tritici [3] = assay: Antifungal activity against azoxystrobin-sensitive Zymoseptoria tritici T021 carrying cytochrome-b G143 allele assessed as fungal colony perpendicular diameter changes after 10 days at 18 degC by spotting on PDA medium assay; details: T021, 240 h
Zymoseptoria tritici [4] = assay: Antifungal activity against azoxystrobin-resistant Zymoseptoria tritici T055 carrying cytochrome-b A143 allele assessed as fungal colony perpendicular diameter changes after 10 days at 18 degC by spotting on PDA medium assay; details: T055, 240 h
Zymoseptoria tritici [5] = assay: Antifungal activity against azoxystrobin-resistant Zymoseptoria tritici T0345 carrying cytochrome-b A143 allele assessed as fungal colony perpendicular diameter changes after 10 days at 18 degC by spotting on PDA medium assay; details: T0345, 240 h
Zymoseptoria tritici [6] = assay: Antifungal activity against azoxystrobin-sensitive Zymoseptoria tritici T0214 carrying cytochrome-b G143 allele assessed as inhibition of spore germination after 2 days at 18 degC by spotting on PDA medium assay; details: T0214, 48 h
Zymoseptoria tritici [7] = assay: Antifungal activity against azoxystrobin-sensitive Zymoseptoria tritici T0213 carrying cytochrome-b G143 allele assessed as inhibition of spore germination after 2 days at 18 degC by spotting on PDA medium assay; details: T0213, 48 h
Zymoseptoria tritici [8] = assay: Antifungal activity against azoxystrobin-sensitive Zymoseptoria tritici IPO94269 carrying cytochrome-b G143 allele assessed as fungal growth inhibition after 6 days at 20 degC by microplate without alamar blue assay; details: IPO94269, 144 h
Zymoseptoria tritici [9] = assay: Antifungal activity against azoxystrobin-resistant Zymoseptoria tritici T055 carrying cytochrome-b A143 allele assessed as fungal growth inhibition after 6 days at 20 degC by microplate without alamar blue assay; details: T055, 144 h
Zymoseptoria tritici [10] = assay: Antifungal activity against azoxystrobin-sensitive Zymoseptoria tritici T0210 carrying cytochrome-b G143 allele assessed as fungal colony perpendicular diameter changes after 10 days at 18 degC by spotting on PDA medium assay; details: T0210, 240 h
Zymoseptoria tritici [11] = assay: Antifungal activity against azoxystrobin-sensitive Zymoseptoria tritici T083 carrying cytochrome-b G143 allele assessed as fungal growth inhibition after 6 days at 20 degC by microplate without alamar blue assay; details: T083, 144 h
Zymoseptoria tritici [12] = assay: Antifungal activity against azoxystrobin-sensitive Zymoseptoria tritici T0403 carrying cytochrome-b G143 allele assessed as fungal growth inhibition after 6 days at 20 degC by microplate without alamar blue assay; details: T0403, 144 h

**Q.** What does the source list for `CO/C=C(/C(=O)OC)c1ccccc1Oc1cc(Oc2ccccc2C#N)ncn1` [AZOXYSTROBIN]?
**A.** IC50 (Zymoseptoria tritici [1]): 0.01 µg/mL (≈ 0.0248 µM); IC50 (Zymoseptoria tritici [2]): 29.6 µg/mL (≈ 73.3 µM); IC50 (Zymoseptoria tritici [3]): 0.11 µg/mL (≈ 0.273 µM); IC50 (Zymoseptoria tritici [4]): 10.2 µg/mL (≈ 25.2 µM); IC50 (Zymoseptoria tritici [5]): > 100 µg/mL; IC50 (Zymoseptoria tritici [6]): 0.03 µg/mL (≈ 0.0744 µM); IC50 (Zymoseptoria tritici [7]): 0.16 µg/mL (≈ 0.397 µM); IC50 (Zymoseptoria tritici [8]): 0.03 µg/mL (≈ 0.0744 µM); IC50 (Zymoseptoria tritici [9]): > 100 µg/mL; IC50 (Zymoseptoria tritici [10]): 0.06 µg/mL (≈ 0.149 µM); IC50 (Zymoseptoria tritici [11]): 0.5 µg/mL (≈ 1.24 µM); IC50 (Zymoseptoria tritici [12]): 9.9 µg/mL (≈ 24.5 µM)
